Reference: ChEMBL document CHEMBL1121522, “Binding specificities of adenosine aminohydrolase from calf intestinal mucosa with dialdehydes derived from hexofuranosyladenine nucleosides” (J Med Chem, 1980)

Tests used:
[1] = tested on: adenosine aminohydrolase (adenosine deaminase); assay: Kinetic Constant (Km) against Adenosine Aminohydrolase was determined from calf intestinal mucosa; type: ADME, Bos taurus; conditions: cattle
Bos taurus = species: Bos taurus; assay: Kinetic constant (Vmax) against Adenosine Aminohydrolase was determined from calf intestinal mucosa; type: ADME; conditions: cattle, in vitro
Adenosine deaminase = target: T1, Adenosine deaminase (Bos taurus, UniProt P56658); assay: Inhibition constant against Adenosine deaminase was determined from calf intestinal mucosa
T1 sequence (P56658 whole entry): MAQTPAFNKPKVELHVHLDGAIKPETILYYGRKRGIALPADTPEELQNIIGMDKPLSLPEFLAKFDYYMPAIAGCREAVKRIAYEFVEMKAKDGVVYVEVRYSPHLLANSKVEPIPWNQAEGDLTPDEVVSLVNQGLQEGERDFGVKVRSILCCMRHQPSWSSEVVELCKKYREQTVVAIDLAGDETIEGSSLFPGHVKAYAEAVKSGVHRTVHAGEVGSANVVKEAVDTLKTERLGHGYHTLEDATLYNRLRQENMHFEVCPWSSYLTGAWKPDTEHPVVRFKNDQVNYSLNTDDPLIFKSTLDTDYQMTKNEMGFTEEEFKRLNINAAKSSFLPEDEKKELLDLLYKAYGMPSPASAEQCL

Row | Km [1] [µM] | Vmax (Bos taurus) [µmol/min/mg] | Ki (Adenosine deaminase) [µM] | Structure (SMILES)
1 | 140 | 0.41 | 370 | CC(O)[C@H](C=O)O[C@@H](C=O)n1cnc2c(N)ncnc21 (stereo partly drawn)
2 | – | – | 50 | C=C[C@@H](C=O)O[C@@H](C=O)n1cnc2c(N)ncnc21
3 | – | – | 7 | C=C[C@H](C=O)O[C@H](C=O)n1cnc2c(N)ncnc21
4 | 350 | 0.46 | 430 | CC(O)[C@@H](C=O)O[C@@H](C=O)n1cnc2c(N)ncnc21 (stereo partly drawn)
